# Measured values reported in BindingDB's records for doi:10.1021/jm0492397 (Saarland University, 2005).
# Molecular target: T1, Cytochrome P450 11B1, mitochondrial (Homo sapiens, UniProt P15538)
# T1 sequence (P15538 whole entry): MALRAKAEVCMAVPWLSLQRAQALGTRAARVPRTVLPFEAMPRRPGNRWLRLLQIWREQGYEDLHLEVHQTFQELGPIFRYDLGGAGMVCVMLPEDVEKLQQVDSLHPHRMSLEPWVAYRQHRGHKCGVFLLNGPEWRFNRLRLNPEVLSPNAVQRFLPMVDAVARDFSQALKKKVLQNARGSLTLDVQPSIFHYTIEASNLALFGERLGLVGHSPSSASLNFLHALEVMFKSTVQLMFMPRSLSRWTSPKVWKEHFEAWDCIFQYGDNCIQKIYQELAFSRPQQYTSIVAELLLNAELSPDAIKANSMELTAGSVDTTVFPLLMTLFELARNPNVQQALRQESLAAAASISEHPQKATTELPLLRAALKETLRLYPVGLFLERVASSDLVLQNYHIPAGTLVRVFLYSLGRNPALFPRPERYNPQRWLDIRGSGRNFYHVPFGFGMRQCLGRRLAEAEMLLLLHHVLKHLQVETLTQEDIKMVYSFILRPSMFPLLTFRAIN
# Assay: CYP11B assay
# Method: The enzyme activity was assayed by monitoring the conversion of deoxycorticosterone to corticosterone in the presence of inhibitor compounds. The product formation was monitored by HPTLC using a phosphoimager system.
row,Structure (SMILES),IC50 [µM]
1,"C/C(=C1/CCc2cc(F)ccc21)c1cccnc1 [3-{1-[(1E)-5-fluoro-2,3-dihydro-1H-inden-1-ylidene]ethyl}pyridine]",0.159
2,"C(=C1/CCCc2ccccc21)/c1ccncc1 [4-[(E)-3,4-Dihydronaphthalen-1(2H)-ylidenemethyl]pyridine]",0.282
3,"Brc1ccc2c(c1)CC/C2=C/c1ccncc1 [4-{[(1Z)-5-bromo-2,3-dihydro-1H-inden-1-ylidene]methyl}pyridine]",0.877
4,"Clc1ccc2c(c1)CC/C2=C/c1ccncc1 [4-{[(1Z)-5-chloro-2,3-dihydro-1H-inden-1-ylidene]methyl}pyridine]",1.12
